Data published in patent publication US20020137929A1, “1 - (3-heterocyclylphenyl) isothiourea, -isourea, -guanidine and -amidine herbicidal agents” (Intellectual Property Department, BASF Aktiengesellschaft, priority 1998, published 2002).

Assays:
[1] = test system: CHEAL (Lambsquarters, Common); test: Postemergence herbicidal evaluation; assay type: in vivo, Chenopodium album; details: for CHEAL herbicidal rating / herbicidal rating CHEAL: postemergence
Outline: (§1)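 Scores (0–9) reflect plant stand, vigor, malformation, size, chlorosis and general appearance relative to control, read 4 to 5 weeks after treatment and averaged where tests were repeated. Application: about 0.0156–0.500 kg/ha sprayed at 40 psi onto two-week seedlings.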

[2] = test system: IPOHE (Morningglory, Ivyleaf); test: Postemergence herbicidal evaluation; assay type: in vivo, Ipomoea hederacea; details: for IPOHE herbicidal rating / herbicidal rating IPOHE: postemergence
Outline: as §1

[3] = test system: GALAP (Galium); test: Preemergence herbicidal evaluation; assay type: in vivo, Galium aparine; details: rated 4-5 weeks after treatment
Outline: (§2)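 Rating at 4–5 wk post-spray on a 0–9 visual scale vs control. Application: aqueous acetone, ~0.0156–0.500 kg/ha, to soil surface after seeding, preemergence.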

[4] = test system: ECHCG (Barnyardgrass); test: Preemergence herbicidal evaluation; assay type: in vivo, Echinochloa crus-galli; details: rated 4-5 weeks after treatment
Outline: as §2

[5] = test system: GLXMAW (Soybean, Williams); test: Preemergence herbicidal evaluation; assay type: in vivo, Glycine max, (L.) Merr. cv Williams; details: rated 4-5 weeks after treatment
Outline: as §2

[6] = test system: MOOVA (Monochoria); test: Postemergence weed control under flooded paddy conditions; assay type: in vivo, Monochoria vaginalis; details: postemergence weeds, 3-4 weeks after treatment
Source text: Results of herbicide evaluation are expressed on a rating scale (0-9). The scale is based upon a visual observation of plant stand, vigor, malformation, size, chlorosis and overall plant appearance as compared with a control.
Plastic containers containing weeds which are 3 to 5 cm tall and rice seedlings at the 1.5 to 2.5 leaf stage are flooded with water. The water is maintained at 1.5 to 3 cm above the soil surface for the duration of the experiment. Test compounds are applied as aqueous/ acetone mixtures 50/50 v/v directly into the flood water to provide the equivalent of about 0.0313 to 0.500 kg/ha of active ingredient. The treated containers are placed on greenhouse benches and cared for in accordance with conventional greenhouse procedures. Three to four weeks after treatment, the test is terminated and each container is examined and herbicidal effect rated according to the rating system provided in Example 37. The compounds evaluated are reported by compound number given in Example 37.

Work on `CC1SC(=Nc2cc(-n3c(=O)cc(C(F)(F)F)n(C)c3=O)c(F)cc2Cl)N(C)C1=O` (stereo not shown) [Compound 9] yielded a CHEAL herbicidal rating ([1]; rate 0.0156 kg/ha) of 6.5, a CHEAL herbicidal rating ([1]; rate 0.0313 kg/ha) of 6.0 and a CHEAL herbicidal rating ([1]; rate 0.0625 kg/ha) of 9.0. The CHEAL herbicidal rating ([1]; rate 0.1250 kg/ha) was 9.0, the IPOHE herbicidal rating ([2]; rate 0.0156 kg/ha) was 4.0 and the IPOHE herbicidal rating ([2]; rate 0.0313 kg/ha) was 7.0. For the same molecule, the IPOHE herbicidal rating ([2]; rate 0.0625 kg/ha) was 9.0, the IPOHE herbicidal rating ([2]; rate 0.1250 kg/ha) was 9.0 and the “GALAP preemergence herbicidal rating” value ([3]; rate 0.0156 kg/ha) was 1.0. The “GALAP preemergence herbicidal rating” value ([3]; rate 0.0313 kg/ha) was 4.5, the “GALAP preemergence herbicidal rating” value ([3]; rate 0.0625 kg/ha) was 9.0 and the “GALAP preemergence herbicidal rating” value ([3]; rate 0.1250 kg/ha) was 9.0. The “GALAP preemergence herbicidal rating” value ([3]; rate 0.2500 kg/ha) was 9.0, the “ECHCG preemergence herbicidal rating” value ([4]; rate 0.0156 kg/ha) was 5.7 and the “ECHCG preemergence herbicidal rating” value ([4]; rate 0.0313 kg/ha) was 8.3. For the same molecule, the “ECHCG preemergence herbicidal rating” value ([4]; rate 0.0625 kg/ha) was 8.7, the “ECHCG preemergence herbicidal rating” value ([4]; rate 0.1250 kg/ha) was 9.0 and the “ECHCG preemergence herbicidal rating” value ([4]; rate 0.2500 kg/ha) was 9.0. For the same molecule, the “GLXMAW preemergence herbicidal rating” value ([5]; rate 0.0156 kg/ha) was 4.0, the “GLXMAW preemergence herbicidal rating” value ([5]; rate 0.0313 kg/ha) was 6.0 and the “GLXMAW preemergence herbicidal rating” value ([5]; rate 0.0625 kg/ha) was 6.3. For the same molecule, the “GLXMAW preemergence herbicidal rating” value ([5]; rate 0.1250 kg/ha) was 8.7, the “GLXMAW preemergence herbicidal rating” value ([5]; rate 0.2500 kg/ha) was 9.0 and the “Herbicidal rating MOOVA” value ([6]; rate 0.0313 kg/ha) was 9.0. For the same molecule, the “Herbicidal rating MOOVA” value ([6]; rate 0.0625 kg/ha) was 9.0, the “Herbicidal rating MOOVA” value ([6]; rate 0.1250 kg/ha) was 9.0 and the “Herbicidal rating MOOVA” value ([6]; rate 0.2500 kg/ha) was 9.0.
For `CN1C(=O)C(CC(=O)NO)SC1=Nc1cc(-n2c(=O)cc(C(F)(F)F)n(C)c2=O)c(F)cc1Cl` (stereo not shown) [Compound 162, 2-{{2-Chloro-5-[3,6-dihydro-3-methyl-2,6-dioxo-4-(trifluoromethyl)-1(2H)-pyrimidinyl]-4-fluorophenyl}imino}-3-methyl-4-oxo-5-thiazolidineacetohydroxamic acid], the “herbicidal rating CHEAL” value ([1]; rate 0.0156 kg/ha) was 9.0, the “herbicidal rating CHEAL” value ([1]; rate 0.0313 kg/ha) was 9.0 and the “herbicidal rating CHEAL” value ([1]; rate 0.0625 kg/ha) was 9.0. For the same molecule, the “herbicidal rating IPOHE” value ([2]; rate 0.0156 kg/ha) was 9.0, the “herbicidal rating IPOHE” value ([2]; rate 0.0313 kg/ha) was 9.0 and the “herbicidal rating IPOHE” value ([2]; rate 0.0625 kg/ha) was 9.0. The “Preemergence herbicidal rating GALAP” value ([3]; 0.0156 kg/ha) was 0.0, the “Preemergence herbicidal rating GALAP” value ([3]; 0.0313 kg/ha) was 0.0 and the “Preemergence herbicidal rating GALAP” value ([3]; 0.0625 kg/ha) was 0.0. For the same molecule, the “Preemergence herbicidal rating GALAP” value ([3]; 0.1250 kg/ha) was 3.0, the “Preemergence herbicidal rating GALAP” value ([3]; 0.2500 kg/ha) was 3.0 and the “Preemergence herbicidal rating ECHCG” value ([4]; 0.0156 kg/ha) was 1.0. The “Preemergence herbicidal rating ECHCG” value ([4]; 0.0313 kg/ha) was 4.0, the “Preemergence herbicidal rating ECHCG” value ([4]; 0.0625 kg/ha) was 8.0 and the “Preemergence herbicidal rating ECHCG” value ([4]; 0.1250 kg/ha) was 9.0. For the same molecule, the “Preemergence herbicidal rating ECHCG” value ([4]; 0.2500 kg/ha) was 9.0, the “Preemergence herbicidal rating GLXMAW” value ([5]; 0.0156 kg/ha) was 2.0 and the “Preemergence herbicidal rating GLXMAW” value ([5]; 0.0313 kg/ha) was 2.0. The “Preemergence herbicidal rating GLXMAW” value ([5]; 0.0625 kg/ha) was 2.0, the “Preemergence herbicidal rating GLXMAW” value ([5]; 0.1250 kg/ha) was 5.0 and the “Preemergence herbicidal rating GLXMAW” value ([5]; 0.2500 kg/ha) was 9.0.
For `Cn1c(C(F)(F)F)cc(=O)n(-c2cc(N=C3SCC(=O)N3CC(F)(F)F)c(Cl)cc2F)c1=O` [Compound 163, 3-{4-Chloro-2-fluoro-5-{[4-oxo-3-(2,2,2-trifluoroethyl)-2-thiazolidinylidene]amino}phenyl}-1-methyl-6-(trifluoromethyl)-2,4(1H,3H)-pyrimidinedione], the “herbicidal rating CHEAL” value ([1]; rate 0.0156 kg/ha) was 9.0, the “herbicidal rating CHEAL” value ([1]; rate 0.0313 kg/ha) was 9.0 and the “herbicidal rating CHEAL” value ([1]; rate 0.0625 kg/ha) was 9.0. For the same molecule, the “herbicidal rating IPOHE” value ([2]; rate 0.0156 kg/ha) was 9.0, the “herbicidal rating IPOHE” value ([2]; rate 0.0313 kg/ha) was 9.0 and the “herbicidal rating IPOHE” value ([2]; rate 0.0625 kg/ha) was 9.0. For the same molecule, the “Preemergence herbicidal rating GALAP” value ([3]; 0.0156 kg/ha) was 0.0, the “Preemergence herbicidal rating GALAP” value ([3]; 0.0313 kg/ha) was 0.0 and the “Preemergence herbicidal rating GALAP” value ([3]; 0.0625 kg/ha) was 0.0. For the same molecule, the “Preemergence herbicidal rating GALAP” value ([3]; 0.1250 kg/ha) was 0.0, the “Preemergence herbicidal rating GALAP” value ([3]; 0.2500 kg/ha) was 3.0 and the “Preemergence herbicidal rating ECHCG” value ([4]; 0.0156 kg/ha) was 2.0. The “Preemergence herbicidal rating ECHCG” value ([4]; 0.0313 kg/ha) was 4.0, the “Preemergence herbicidal rating ECHCG” value ([4]; 0.0625 kg/ha) was 7.0 and the “Preemergence herbicidal rating ECHCG” value ([4]; 0.1250 kg/ha) was 8.0. The “Preemergence herbicidal rating ECHCG” value ([4]; 0.2500 kg/ha) was 9.0, the “Preemergence herbicidal rating GLXMAW” value ([5]; 0.0156 kg/ha) was 0.0 and the “Preemergence herbicidal rating GLXMAW” value ([5]; 0.0313 kg/ha) was 2.0. The “Preemergence herbicidal rating GLXMAW” value ([5]; 0.0625 kg/ha) was 3.0, the “Preemergence herbicidal rating GLXMAW” value ([5]; 0.1250 kg/ha) was 3.0 and the “Preemergence herbicidal rating GLXMAW” value ([5]; 0.2500 kg/ha) was 5.0.
With `C#CC(C)N1C(=O)CSC1=Nc1cc(-n2c(=O)cc(C(F)(F)F)n(C)c2=O)c(F)cc1Cl` (stereo not shown) [Compound 165, 3-{4-Chloro-2-fluoro-5-{[3-(1-methyl-2-propynyl)-4-oxo-2-thiazolidinylidene]amino}phenyl}-1-methyl-6-(trifluoromethyl)-2,4(1H,3H)-pyrimidinedione] the “herbicidal rating CHEAL” value ([1]; rate 0.0156 kg/ha) was 5.0, the “herbicidal rating CHEAL” value ([1]; rate 0.0313 kg/ha) was 6.0 and the “herbicidal rating CHEAL” value ([1]; rate 0.0625 kg/ha) was 7.0. The “herbicidal rating CHEAL” value ([1]; rate 0.1250 kg/ha) was 9.0, the “herbicidal rating IPOHE” value ([2]; rate 0.0156 kg/ha) was 9.0 and the “herbicidal rating IPOHE” value ([2]; rate 0.0313 kg/ha) was 9.0. For the same molecule, the “herbicidal rating IPOHE” value ([2]; rate 0.0625 kg/ha) was 9.0, the “herbicidal rating IPOHE” value ([2]; rate 0.1250 kg/ha) was 9.0 and the “Preemergence herbicidal rating GALAP” value ([3]; 0.0156 kg/ha) was 0.0. For the same molecule, the “Preemergence herbicidal rating GALAP” value ([3]; 0.0313 kg/ha) was 0.0, the “Preemergence herbicidal rating GALAP” value ([3]; 0.0625 kg/ha) was 0.0 and the “Preemergence herbicidal rating GALAP” value ([3]; 0.1250 kg/ha) was 4.0. For the same molecule, the “Preemergence herbicidal rating GALAP” value ([3]; 0.2500 kg/ha) was 7.0, the “Preemergence herbicidal rating GALAP” value ([3]; 0.5000 kg/ha) was 8.0 and the “Preemergence herbicidal rating ECHCG” value ([4]; 0.0156 kg/ha) was 0.0. The “Preemergence herbicidal rating ECHCG” value ([4]; 0.0313 kg/ha) was 0.0, the “Preemergence herbicidal rating ECHCG” value ([4]; 0.0625 kg/ha) was 0.0 and the “Preemergence herbicidal rating ECHCG” value ([4]; 0.1250 kg/ha) was 3.0. The “Preemergence herbicidal rating ECHCG” value ([4]; 0.2500 kg/ha) was 6.0, the “Preemergence herbicidal rating ECHCG” value ([4]; 0.5000 kg/ha) was 7.0 and the “Preemergence herbicidal rating GLXMAW” value ([5]; 0.0156 kg/ha) was 0.0. The “Preemergence herbicidal rating GLXMAW” value ([5]; 0.0313 kg/ha) was 0.0, the “Preemergence herbicidal rating GLXMAW” value ([5]; 0.0625 kg/ha) was 4.0 and the “Preemergence herbicidal rating GLXMAW” value ([5]; 0.1250 kg/ha) was 4.0. The “Preemergence herbicidal rating GLXMAW” value ([5]; 0.2500 kg/ha) was 5.0 and the “Preemergence herbicidal rating GLXMAW” value ([5]; 0.5000 kg/ha) was 6.0.
In the case of `CCCN1C(=O)CSC1=Nc1cc(-n2c(=O)cc(C(F)(F)F)n(C)c2=O)c(F)cc1Cl` [Compound 171, 3-{4-Chloro-2-fluoro-5-[(4-oxo-3-propyl-2-thiazolidinylidene)amino]phenyl}-1-methyl-6-(trifluoromethyl)-2,4 (1H, 3H)-pyrimidinedione], the “Postemergence herbicidal rating CHEAL” value ([1]; Rate 0.0156 kg/ha) is reported as 7.0, the “Postemergence herbicidal rating CHEAL” value ([1]; Rate 0.0313 kg/ha) is reported as 9.0 and the “herbicidal rating CHEAL” value ([1]; rate 0.0625 kg/ha) is reported as 9.0. For the same molecule, the “Postemergence herbicidal rating IPOHE” value ([2]; Rate 0.0156 kg/ha) was 9.0, the “Postemergence herbicidal rating IPOHE” value ([2]; Rate 0.0313 kg/ha) was 9.0 and the “herbicidal rating IPOHE” value ([2]; rate 0.0625 kg/ha) was 9.0. For the same molecule, the “Preemergence herbicidal rating GALAP” value ([3]; 0.0156 kg/ha) was 0.0, the “Preemergence herbicidal rating GALAP” value ([3]; 0.0313 kg/ha) was 0.0 and the “Preemergence herbicidal rating GALAP” value ([3]; 0.1250 kg/ha) was 5.0. The “Preemergence herbicidal rating GALAP” value ([3]; 0.2500 kg/ha) was 6.0, the “Preemergence herbicidal rating ECHCG” value ([4]; 0.0156 kg/ha) was 0.0 and the “Preemergence herbicidal rating ECHCG” value ([4]; 0.0313 kg/ha) was 4.0. For the same molecule, the “Preemergence herbicidal rating ECHCG” value ([4]; 0.0625 kg/ha) was 8.0, the “Preemergence herbicidal rating ECHCG” value ([4]; 0.1250 kg/ha) was 9.0 and the “Preemergence herbicidal rating ECHCG” value ([4]; 0.2500 kg/ha) was 9.0. The “Preemergence herbicidal rating GLXMAW” value ([5]; 0.0156 kg/ha) was 1.0, the “Preemergence herbicidal rating GLXMAW” value ([5]; 0.0313 kg/ha) was 2.0 and the “Preemergence herbicidal rating GLXMAW” value ([5]; 0.0625 kg/ha) was 6.0. The “Preemergence herbicidal rating GLXMAW” value ([5]; 0.1250 kg/ha) was 7.0 and the “Preemergence herbicidal rating GLXMAW” value ([5]; 0.2500 kg/ha) was 8.0.
